In patent publication US20120115845A1, “THERAPEUTIC AGENTS” (priority 2007, published 2012):

Assays:
human GHS receptor [1] = target: T1, human GHS receptor (Homo sapiens, UniProt Q92847); experiment: Ghrelin IP1 agonist assay (IP1 HTRF); format: cell-based; design: expressed in transfected cells; host or cells: HEK293s; settings: for Emax: 2 h, agonist effect as % maximal effect of GHRP-6 (5 μM), read-out: h IP1 ag %; for EC50: HEK293s cells stably expressing human GHS receptor, 2 hours at 37° C., read-out: h IP1 ag EC50
Summary of the method: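 Cells: HEK293s stably expressing human GHS receptor, in stimulation buffer containing 0.02% fatty acid free BSA.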

human GHS receptor [2] = target: T1, human GHS receptor; experiment: h bind IC50 (binding assay, Table 1); settings: human receptor; Table 1

T1 sequence (Q92847 whole entry): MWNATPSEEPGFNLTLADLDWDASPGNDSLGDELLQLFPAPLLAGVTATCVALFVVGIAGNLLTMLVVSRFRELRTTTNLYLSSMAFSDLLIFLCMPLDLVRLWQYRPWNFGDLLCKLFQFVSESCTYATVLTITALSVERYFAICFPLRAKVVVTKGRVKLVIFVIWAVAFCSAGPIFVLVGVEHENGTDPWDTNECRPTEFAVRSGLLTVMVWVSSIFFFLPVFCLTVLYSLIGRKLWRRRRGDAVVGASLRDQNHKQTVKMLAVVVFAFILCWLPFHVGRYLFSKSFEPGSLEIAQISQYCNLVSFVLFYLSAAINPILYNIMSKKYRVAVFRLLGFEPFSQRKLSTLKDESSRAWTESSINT

Row | SMILES | Emax (human GHS receptor [1]) [%] | EC50 (human GHS receptor [1]) [nM] | IC50 (human GHS receptor [2]) [nM]
1 | CC1CN(CCS(=O)(=O)c2ccc3nc(NC(=O)NC(=O)c4ccccc4Cl)sc3c2)CC(C)N1 (stereo not drawn) [Example 24, 2-Chloro-N-[[6-[2-(3,5-dimethylpiperazin-1-yl)ethylsulfonyl]benzothiazol-2-yl]carbamoyl]benzamide] | 54 | 6.43 | 25.3
2 | O=C(NC(=O)c1ccccc1Cl)Nc1nc2ccc(S(=O)(=O)CCNC3CC4CCC3C4)cc2s1 (stereo not drawn) [Example 35, 2-Chloro-N-[[6-[2-(norbornan-2-ylamino)ethylsulfonyl]benzothiazol-2-yl]carbamoyl]benzamide] | 56.1 | 10.4 | 71.5
3 | Cc1nc(CS(=O)(=O)c2ccc3nc(NC(=O)NC(=O)c4ccccc4Cl)sc3c2)cs1 [Example 191, 2-Chloro-N-[[6-[(2-methyl-1,3-thiazol-4-yl)methylsulfonyl]benzothiazol-2-yl]carbamoyl]benzamide] | 15.5 | 75.2 | 128
4 | CS(=O)(=O)c1ccc2nc(NC(=O)NC(=O)c3ccccc3[N+](=O)[O-])sc2c1 [Example 104, N-[(6-Methylsulfonylbenzothiazol-2-yl)carbamoyl]-2-nitro-benzamide] | 15.1 | 772 | 742
5 | Cc1ccc(Cl)c(C(=O)NC(=O)Nc2nc3ccc(S(C)(=O)=O)cc3s2)c1 [Example 65, 2-Chloro-5-methyl-N-(6-(methylsulfonyl)benzothiazol-2-ylcarbamoyl)benzamide] | 8.23 | 81 | 272
6 | CS(=O)(=O)N1CCN(CCCS(=O)(=O)c2ccc3nc(NC(=O)NC(=O)c4ccccc4Cl)sc3c2)CC1 [Example 208, 2-Chloro-N-[[6-[3-(4-methylsulfonylpiperazin-1-yl)propylsulfonyl]benzothiazol-2-yl]carbamoyl]benzamide] | 30.7 | 13.5 | 18.1
7 | CN1CCC(S(=O)(=O)c2ccc3nc(NC(=O)NC(=O)c4cc(-n5cccn5)c(F)cc4Cl)sc3c2)CC1 [Example 254, 2-chloro-4-fluoro-N-(6-(1-methylpiperidin-4-ylsulfonyl)benzo [d]thiazol-2-ylcarbamoyl)-5-(1H-pyrazol-1-yl)benzamide] | 0 | ≥ 20000 | 5.69
8 | O=C(NC(=O)c1ccccc1Cl)Nc1nc2ccc(S(=O)(=O)CCN3CCNCC3)cc2s1 [Example 8, 2-Chloro-N-[[6-(2-piperazin-1-ylethylsulfonyl)benzothiazol-2-yl]carbamoyl]benzamide] | 39.9 | 36.4 | 69.6
9 | COCC1CCCN1CCS(=O)(=O)c1ccc2nc(NC(=O)NC(=O)c3ccccc3Cl)sc2c1 (stereo not drawn) [Example 36, 2-Chloro-N-[[6-[2-[2-(methoxymethyl)pyrrolidin-1-yl]ethylsulfonyl]benzothiazol-2-yl]carbamoyl]benzamide] | 34.3 | 9.55 | 305
10 | CC(C)N1CCN(CCCS(=O)(=O)c2ccc3nc(NC(=O)NC(=O)c4ccccc4Cl)sc3c2)CC1 [Example 199, 2-Chloro-N-[[6-[3-(4-propan-2-ylpiperazin-1-yl)propylsulfonyl]benzothiazol-2-yl]carbamoyl]benzamide] | 42.2 | 1.82 | 2.2
11 | COCCN1CCN(CCCS(=O)(=O)c2ccc3nc(NC(=O)NC(=O)c4ccccc4Cl)sc3c2)CC1 [Example 200, 2-Chloro-N-[[6-[3-[4-(2-methoxyethyl)piperazin-1-yl]propylsulfonyl]benzothiazol-2-yl]carbamoyl]benzamide] | 41.4 | 4.53 | 2.7
12 | CS(=O)(=O)c1ccc2nc(NC(=O)NC(=O)c3ccc(-n4cccn4)cc3Cl)sc2c1 [Example 116, 2-Chloro-N-[(6-methylsulfonylbenzothiazol-2-yl)carbamoyl]-4-pyrazol-1-yl-benzamide] | 45.1 | 400 | 36
13 | CS(=O)(=O)c1ccc2nc(NC(=O)NC(=O)c3cc(S(N)(=O)=O)ccc3Cl)sc2c1 [Example 138, 2-Chloro-N-[(6-methylsulfonylbenzothiazol-2-yl)carbamoyl]-5-sulfamoyl-benzamide] | 0 | ≥ 25000 | 448
14 | COc1ccc(C(=O)NC(=O)Nc2nc3ccc(S(C)(=O)=O)cc3s2)c(Cl)c1OC [Example 111, 2-Chloro-3,4-dimethoxy-N-[(6-methylsulfonylbenzothiazol-2-yl)carbamoyl]benzamide] | 14.1 | 335 | 1270
15 | COc1cc(Cl)c(C(=O)NC(=O)Nc2nc3ccc(S(=O)(=O)CCCN4CCN(C)CC4)cc3s2)cc1-n1cccn1 [Example 242, 2-chloro-4-methoxy-N-(6-(3-(4-methylpiperazin-1-yl)propylsulfonyl)benzo[d]thiazol-2-ylcarbamoyl) 5-(1H-pyrazol-1-yl)benzamide] | 9.32 | ≥ 20000 | 0.62
16 | O=C(NC(=O)c1ccccc1Cl)Nc1nc2ccc(S(=O)(=O)CCCN3CCOCC3)cc2s1 [Example 146, 2-Chloro-N-[[6-(3-morpholin-4-ylpropylsulfonyl)benzothiazol-2-yl]carbamoyl]benzamide] | 40.7 | 30 | 269
17 | CC(C)(C)OC(=O)NC1CC(S(=O)(=O)c2ccc3nc(NC(=O)NC(=O)c4ccccc4Cl)sc3c2)C1 (stereo not drawn) [Example 213, tert-Butyl N-[3-[2-[(2-chlorobenzoyl)carbamoylamino]benzothiazol-6-yl]sulfonylcyclobutyl]carbamate] | 12.9 | 12.5 | 238
18 | O=C(NC(=O)c1ccccc1Cl)Nc1nc2ccc(S(=O)(=O)CCN3C[C@@H]4C[C@H]3CO4)cc2s1 [Example 37, 2-Chloro-N-[[6-[2-[(1S,4S)-3-oxa-6-azabicyclo[2.2.1]hept-6-yl]ethylsulfonyl]benzothiazol-2-yl]carbamoyl]benzamide] | 24 | 61.1 | 234
19 | Cc1ccc(Cl)c(C(=O)NC(=O)Nc2nc3ccc(S(C)(=O)=O)cc3s2)c1F [Example 195, 6-Chloro-2-fluoro-3-methyl-N-[(6-methylsulfonylbenzothiazol-2-yl)carbamoyl]benzamide] | 22.8 | 32.9 | 114
20 | CS(=O)(=O)c1ccc2nc(NC(=O)NC(=O)c3cc(-n4cncn4)ccc3Cl)sc2c1 [Example 67, 2-Chloro-N-(6-(methylsulfonyl)benzothiazol-2-ylcarbamoyl)-5-(1H-1,2,4-triazol-1-yl)benzamide] | 0 | > 20000 | 536
21 | CS(=O)(=O)c1ccc2nc(NC(=O)NC(=O)c3cc(F)c(F)cc3Cl)sc2c1 [Example 177, 2-Chloro-4,5-difluoro-N-[(6-methylsulfonylbenzothiazol-2-yl)carbamoyl]benzamide] | 22.8 | 66.4 | 248
22 | CC1CCC(C)N1CCS(=O)(=O)c1ccc2nc(NC(=O)NC(=O)c3ccccc3Cl)sc2c1 (stereo not drawn) [Example 18, 2-Chloro-N-[[6-[2-(2,5-dimethylpyrrolidin-1-yl)ethylsulfonyl]benzothiazol-2-yl]carbamoyl]benzamide] | 47 | 53.6 | 252
23 | CS(=O)(=O)c1ccc2nc(NC(=O)NC(=O)c3cc(C(F)(F)F)ccc3Cl)sc2c1 [Example 181, 2-Chloro-N-[(6-methylsulfonylbenzothiazol-2-yl)carbamoyl]-5-(trifluoromethyl)benzamide] | 54.4 | 0.633 | 49
24 | CS(=O)(=O)c1ccc2nc(NC(=O)NC(=O)c3cc(N4CCCC4)ccc3Cl)sc2c1 [Example 48, 2-Chloro-5-(1-pyrrolidinyl)-N-(6-(methylsulfonyl)benzothiazol-2-ylcarbamoyl)benzamide] | 0.32 | ≥ 25000 | 1.3
25 | C#Cc1ccc(Cl)c(C(=O)NC(=O)Nc2nc3ccc(S(=O)(=O)CCCN4CCN(C)CC4)cc3s2)c1 [Example 220, 2-Chloro-5-ethynyl-N-[[6-[3-(4-methylpiperazin-1-yl)propylsulfonyl]benzothiazol-2-yl]carbamoyl]benzamide] | 21.4 | 4.01 | 2.8
26 | CS(=O)(=O)c1ccc(C(=O)NC(=O)Nc2nc3ccc(S(C)(=O)=O)cc3s2)c(Cl)c1 [Example 113, 2-Chloro-4-methylsulfonyl-N-[(6-methylsulfonylbenzothiazol-2-yl)carbamoyl]benzamide] | 10.8 | 1290 | 1660
27 | CS(=O)(=O)c1ccc2nc(NC(=O)NC(=O)c3ccccc3C(F)(F)F)sc2c1 [Example 170, N-[(6-Methylsulfonylbenzothiazol-2-yl)carbamoyl]-2-(trifluoromethyl)benzamide] | 9.73 | 75.7 | 831
28 | O=C(NC(=O)c1ccccc1Cl)Nc1nc2ccc(S(=O)(=O)C3CNC3)cc2s1 [Example 183, N-[[6-(Azetidin-3-ylsulfonyl)benzothiazol-2-yl]carbamoyl]-2-chloro-benzamide] | 42.1 | 13.8 | 6.7
29 | CN1CCN(CCCS(=O)(=O)c2ccc3nc(NC(=O)NC(=O)c4ccccc4Cl)sc3c2)CC1 [Example 155, 2-Chloro-N-[[6-[3-(4-methylpiperazin-1-yl)propylsulfonyl]benzothiazol-2-yl]carbamoyl]benzamide] | 55.2 | 2.25 | 1.2
30 | CC(C)NCC(C)(C)S(=O)(=O)c1ccc2nc(NC(=O)NC(=O)c3ccccc3Cl)sc2c1 [Example 225, 2-chloro-N-(6-(1-(isopropylamino)-2-methylpropan-2-ylsulfonyl)benzo[d]thiazol-2-ylcarbamoyl)benzamide] | 27.8 | 224 | 60.3
